Here are results for six molecules from ChEMBL document CHEMBL3860092, “Recent progress on the discovery of antiamoebic agents” (Bioorg Med Chem Lett, 2016).

pIC50: −log10 of the molar value.

Data set [1] concerns Entamoeba histolytica. Kind of data set: Antiamoebic activity against Entamoeba histolytica HM-1:IMSS trophozoites after 72 hrs by microdilution method. It is filed as functional. On the technique in general: Dilution methods test growth across graded concentrations, often in twofold steps.
Data set [2] can be described thus: Cytotoxicity against mouse Melan-a cells assessed as reduction in cell viability after 48 hrs by MTT assay. It is filed as toxicity. (Tetrazolium assays rely on reduction of a dye to a coloured formazan, in cell work by metabolically active cells.)

Usually pIC50 stands for −log10 of the IC50, conventionally taken in molar units. Low values mean a large IC50, high ones a small IC50. For orientation: IC50 means the concentration that gives 50% inhibition. In the case of `Cc1ncc([N+](=O)[O-])n1CCOC(=O)Nc1ccc(OCc2ccc(F)c(F)c2)cc1`, in data set [1], the pIC50 was 6.59. Moreover, in data set [2], the IC50 at 48 h was more than 50000 nM.
On the same counts, the results for `Cc1ncc([N+](=O)[O-])n1CCOC(=O)Nc1ccc(OCc2ccc(C#N)cc2)cc1` are 6.59 and more than 50000 nM.
The matching figures for `Cc1ncc([N+](=O)[O-])n1CCOC(=O)Nc1ccc(OCc2cccc(Cl)c2)cc1`: 6.82 and more than 50000 nM.
The matching figures for `Cc1ncc([N+](=O)[O-])n1CCOC(=O)Nc1ccc(OCc2ccc(F)cc2)cc1`: 7.10 and more than 50000 nM.
On to `Cc1ncc([N+](=O)[O-])n1CCO` [METRONIDAZOLE], for which the pIC50 in data set [1] was 5.75.
With `Cc1ncc([N+](=O)[O-])n1CCOC(=O)Nc1ccc(OCc2ccc(C(F)(F)F)cc2)cc1`, the pIC50 in data set [1] is 6.62. The IC50 at 48 h in data set [2] was more than 50000 nM.
